The test system of one series is TDP-43 aggregation. The settings on record: iPS cell derived motor neurons, sporadic ALS; Burkhardt et al. 2013; cited from earlier work.
Another series concerns HNRNPL. The settings on record: Gene HNRNPL; cited from earlier work.
The subject of series [1] is vascular endothelial growth factor (VEGF). The conditions noted are these: Jeong J. H. et al. 2011; cited from earlier work.
The conditions of series [2]: mouse, in vivo, po; cited from earlier work.
The conditions of series [3]: cited from earlier work; for toxicity (LD50): IP or oral administration, U.S. Pat. No. 3,995,061, FIGS. 15A and 15B; for toxicity (shown to be non-toxic): in vivo.
A further series concerns cancer. The settings on record: literature; cited from earlier work.
The conditions of series [4]: U.S. Pat. No. 3,995,061, cited from earlier work; for toxicity: administered orally to human.
The conditions of series [5]: rat, in vivo, po; cited from earlier work.
Series [6] deals with glucose transporter 1 (GLUT-1). The settings on record: Jeong J. H. et al. 2011; cited from earlier work.
Series [7] has as its system hnRNP L. In words: Western blot of hnRNP L protein in rat primary cortical neurons after ASC treatment. The conditions noted are these: 10^−7 M or 10^−6 M ASC, FIG. 14. Type of series: cell-based. The procedure:
(§1) FIG. 14 is a gel image showing a comparison of hnRNP L protein levels in rat primary cortical neurons with or without ASC treatments at different doses. The rat neurons were treated with 10^−7 M or 10^−6 M ASC, or not treated as control (“Cont.”), and then lysed for western blot detection of protein expression levels of hnRNP L (the upper panel). The arrow points to hnRNP L protein bands (appears as a triplet). […] FIG. 14B is a gel image showing elevation of hnRNP L levels after ASC treatment in SH-SY5Y human neuroblastoma cells (CLT results).
(§2) Such function of ASC was also found in human osteosarcoma cells (about 10-fold) and multiple disease models, see PCT publication no. WO/2019/236750, which is incorporated by reference herein in its entirety.
For orientation: Immunoblotting shows a protein as a band on a membrane.

Series [8] relates to hnRNP L. The experiment in a line: hnRNP L expression in human differentiated myoblasts after ASC treatment. Type of series: cell-based.
From the text: as §2

Series [9] has as its system hnRNP L. The experiment in a line: hnRNP L levels after ASC treatment in SH-SY5Y human neuroblastoma cells. Type of series: cell-based. The conditions noted are these: FIG. 14B. The procedure:
as §1

The test system of series [10] is hnRNP L. The conditions noted are these: cited from earlier work; for increase in the levels of hnRNP L: human osteosarcoma cells (U2OS).
Series [11] has as its system human hnRNP L (hsHNRNP L) mRNA. The experiment in a line: 5-point dose response (DRC) of ASOs, hnRNP L mRNA by branched DNA assay in BE(2)-M17 cells. The format is cell-based. The conditions noted are these: 24 h; for max. upregulation [%] (MV normalized hsHNRNP L/hsGAPDH): Lipofectamine3000, highest 120 nM, four 4-fold dilutions, bDNA, negative controls set to 100%; for pEC50: hsHNRNP L mRNA upregulation, XLfit. From the text: Data were generated in biological quadruplicates. […] No significant decrease in hsGAPDH mRNA levels was observed.
Details and data are shown in Table 9A-9B, FIG. 24, and FIG. 25A-25E. In some cases, there was dose dependent hsHNRNP L on-target mRNA upregulation to varying degrees when cells were transfected with ASO compounds of interest.

Another series relates to hsHNRNP L mRNA. The experiment in a line: Time-course experiment, ASOs at 30 nM, hnRNP L mRNA by bDNA in BE(2)-M17 cells. Type of series: cell-based, Homo sapiens. The conditions noted are these: 30 nM ASO, mock controls set to 100%, incubations 24 h, 48 h, 72 h, time point not given. The procedure:
Lipofectamine3000 (LF3000) was again used as the transfection agent. The transfection mixture was prepared identically on three plates. […] In this case, no outliers were removed. Data were generated in biological quadruplicates.
FIG. 26 includes a comparison of results from this study next to results from Example 7. Observing the results after 24 h incubation, similar data from the analysis in Example 7 were reproduced here.

Usually pEC50 stands for the negative decadic logarithm of the EC50, by convention in mol/L. A high value points to a small EC50.

pEC50: −log10 of the molar value. Read-outs that look alike come from different tables or passages of the source. Strand notation (5' to 3'): a small letter for the sugar, then the base; units joined by * are phosphorothioate-linked, units joined directly phosphodiester-linked; [ ] holds rarer units or linkages, { } end groups; capitals alone tell only the bases. e = 2'-O-(2-methoxyethyl) (MOE); [5mC] = 5-methylcytosine

As to `C[C@H]1O[C@@H](O[C@H]2[C@@H](O)C[C@H](O[C@H]3[C@@H](O)C[C@H](O[C@H]4CC[C@@]5(C)[C@H](CC[C@@H]6[C@@H]5C[C@@H](O)[C@]5(C)[C@@H](C7=CC(=O)OC7)CC[C@]65O)C4)O[C@@H]3C)O[C@@H]2C)C[C@H](O)[C@@H]1O` [digoxin], the “hit in screen for compounds reducing TDP-43 aggregation” value with TDP-43 aggregation is given as “hits confirmed in dose response assays”. In addition, the “Source (DSigDB signature, association with increased hnRNP L levels)” value with HNRNPL is on record as “D3(UP)”.
Regarding `COc1c(Cl)c(C)c(C=O)c(O)c1C/C=C(C)/C=C/[C@@]1(C)[C@H](C)CCC(=O)[C@@H]1C` [MAC, 4-O-methylascochlorin], in series [1], the “expression of VEGF” value is recorded as “increases”. Also, the toxicity entry in [2], in [4] and in series [5] was “low toxicity” each time. Further, the “toxicity (LD50)” value in series [3] is reported as “low toxicity”. The “antitumorigenic / anti-cancer properties” value in the series on cancer was “antitumorigenic properties”. Also, the “tolerability in clinical trials” value in [4] is reported as “well tolerated”. In addition, the “expression of GLUT-1” value in series [6] is recorded as “increases”.
ascochlorin: the “toxicity (shown to be non-toxic)” value in series [3] is recorded as “non-toxic”. In addition, the “hnRNP L expression levels” value in the series with hnRNP L [7] is given as “increased”. Further, the “increase of hnRNP L expression levels” value in the series with hnRNP L [8] is reported as “about 6 fold”. Further, in the series on cancer, the “antitumorigenic / anti-cancer properties” value is “antitumorigenic properties”. For the same compound, the “hnRNP L levels” value in the series on hnRNP L [9] was “elevation”. Also, the “increase of hnRNP L levels” value in the series on hnRNP L [10] (Kang J. H. et al. J Proteome Res. 2006) is ~12 ×. The “increase in the levels of hnRNP L” value is ≥ 10 fold in the series with hnRNP L [10] and “about 10 fold” with hnRNP L [10] (listed as ASC).
On to `C[C@H](CS)C(=O)N1CCC[C@H]1C(=O)O` [captopril], for which the “Source (DSigDB signature, association with increased hnRNP L levels)” value in the series on HNRNPL is recorded as “D3(UP)”.
As for `CN(C)C(=O)Oc1cccc([N+](C)(C)C)c1` [neostigmine bromide], in the series with HNRNPL, the “Source (DSigDB signature, association with increased hnRNP L levels)” value is listed as “D3(UP)”.
For the compound “Skip-6A-16: ASO CTTCAACAGTGAGTTAGCACAG (SEQ ID NO: 65), fully 2′-MOE, 5′-methyl C, phosphorothioate; exon 6A (antisense e[5mC]*eT*eT*e[5mC]*eA*eA*e[5mC]*eA*eG*eT*eG*eA*eG*eT*eT*eA*eG*e[5mC]*eA*e[5mC]*eA*eG; listed as Homo sapiens)”, in series [11], the “max. upregulation [%] (MV normalized hsHNRNP L/hsGAPDH)” value was found to be 61.6% and the negative logarithm of the EC50 (pEC50) is 8.31. Also, the “MV normalized hsHNRNP L/hsGAPDH” value in the series with hsHNRNP L mRNA was 53.2%.
For “Skip-6A-5: ASO ATGGTTTTACAGTCATAAATAC (SEQ ID NO: 54), fully 2′-MOE, 5′-methyl C, phosphorothioate; upstream intron (antisense eA*eT*eG*eG*eT*eT*eT*eT*eA*e[5mC]*eA*eG*eT*e[5mC]*eA*eT*eA*eA*eA*eT*eA*e[5mC]; listed as Homo sapiens)”, in that order: 41.6%, 8.14 and 67.3%.
As for `C=C1CC[C@H](O)C(C)(C)[C@@H]1CC/C(C)=C/Cc1c(O)c(Cl)c(C)c(C=O)c1O` [acremochlorin A, reference compound], the “antitumorigenic / anti-cancer properties” value in the series on cancer is on record as “anti-cancer properties”.
Turning to “Skip-6A-20: ASO CTGTATTTTCTCTTACCATTGG (SEQ ID NO: 69), fully 2′-MOE, 5′-methyl C, phosphorothioate; exon 6A (antisense e[5mC]*eT*eG*eT*eA*eT*eT*eT*eT*e[5mC]*eT*e[5mC]*eT*eT*eA*e[5mC]*e[5mC]*eA*eT*eT*eG*eG; listed as Homo sapiens)”, in series [11], the “max. upregulation [%] (MV normalized hsHNRNP L/hsGAPDH)” value was found to be 71.6% and the negative-log EC50 (pEC50) is 8.30. In the series on hsHNRNP L mRNA, the “MV normalized hsHNRNP L/hsGAPDH” value is 68.3%.
The corresponding values for “Skip-6A-9: ASO TCAAACATACACTGCGACCCTG (SEQ ID NO: 58), fully 2′-MOE, 5′-methyl C, phosphorothioate; upstream intron/exon (antisense eT*e[5mC]*eA*eA*eA*e[5mC]*eA*eT*eA*e[5mC]*eA*e[5mC]*eT*eG*e[5mC]*eG*eA*e[5mC]*e[5mC]*e[5mC]*eT*eG; listed as Homo sapiens)” are 40.2%, 8.15 and 31.3%.
For “Skip-6A-13: ASO CAGTTCTGAAAGATGGCGTCCC (SEQ ID NO: 62), fully 2′-MOE, 5′-methyl C, phosphorothioate; exon 6A (antisense e[5mC]*eA*eG*eT*eT*e[5mC]*eT*eG*eA*eA*eA*eG*eA*eT*eG*eG*e[5mC]*eG*eT*e[5mC]*e[5mC]*e[5mC]; listed as Homo sapiens)”, in that order: 53.3%, 8.40 and 56.0%.
For “Skip-6A-15: ASO AGTGAGTTAGCACAGTTCTGAA (SEQ ID NO: 64), fully 2′-MOE, 5′-methyl C, phosphorothioate; exon 6A (antisense eA*eG*eT*eG*eA*eG*eT*eT*eA*eG*e[5mC]*eA*e[5mC]*eA*eG*eT*eT*e[5mC]*eT*eG*eA*eA; listed as Homo sapiens)”, in that order: 55.8%, 8.13 and 63.4%.
In the case of `C/C(=C\Cc1c(O)c(Cl)c(C)c(C=O)c1O)CC/C=C(\C)[C@@H]1CC(=O)C(C)(C)O1` [ascofuranone], the “toxicity (shown to be non-toxic)” value in series [3] is recorded as “non-toxic”. In addition, in the series on cancer, the “antitumorigenic / anti-cancer properties” value is on record as “antitumorigenic properties”.
For `CCOc1c(Cl)c(C)c(C=O)c(O)c1C/C=C(C)/C=C/C1(C)C(C)CCC(=O)C1C` (centres unmarked) [4-O-ethyl-ascochlorin], the “toxicity (LD50)” value in series [3] is on record as “low toxicity”. In addition, the toxicity result in series [4] is “low toxicity”.
As to `C[C@@H]1O[C@@H](O[C@@H]2C=C3CC[C@@H]4[C@H](CC[C@]5(C)[C@@H](c6ccc(=O)oc6)CC[C@]45O)[C@@]3(C)CC2)[C@H](O)[C@H](O)[C@H]1O` [proscillaridin], the “hit in screen for compounds reducing TDP-43 aggregation” value with TDP-43 aggregation is “hits confirmed in dose response assays”. Besides, the “Source (DSigDB signature, association with increased hnRNP L levels)” value with HNRNPL is reported as “D3(UP)”.
For `CC(C=CC1(C)C(C)CCC(=O)C1C)=CCc1c(O)c(Br)c(C)c(C=O)c1O` (centres unmarked) [3-bromoascochlorin, reference compound], the “antitumorigenic / anti-cancer properties” value in the series with cancer is recorded as “anti-cancer properties”.
For “Skip-6A-19: ASO TTCTCTTACCATTGGACGCTTC (SEQ ID NO: 68), fully 2′-MOE, 5′-methyl C, phosphorothioate; exon 6A (antisense eT*eT*e[5mC]*eT*e[5mC]*eT*eT*eA*e[5mC]*e[5mC]*eA*eT*eT*eG*eG*eA*e[5mC]*eG*e[5mC]*eT*eT*e[5mC]; listed as Homo sapiens)”, in [11], the “max. upregulation [%] (MV normalized hsHNRNP L/hsGAPDH)” value worked out at 51.8% and the pEC50 was 8.13. In addition, the “MV normalized hsHNRNP L/hsGAPDH” value in the series on hsHNRNP L mRNA is given as 62.4%.
With `CCc1c2c(nc3ccc(OC(=O)N4CCC(N5CCCCC5)CC4)cc13)-c1cc3c(c(=O)n1C2)COC(=O)[C@]3(O)CC` [irinotecan], the “Source (DSigDB signature, association with increased hnRNP L levels)” value in the series with HNRNPL is “D3(UP)”.
